Measured values from patent US10201587B2, “Methods of inhibiting and treating biofilms using glycopeptide antibiotics” (MELINTA THERAPEUTICS, INC., priority 2008, dated 2019).
In brackets after ≈: the same amount, converted by molar mass. Where two headings read alike, the source gives them in different places.

What was measured:
MRSA ATCC 33591 = assay: MBEC system in vitro biofilm (MIC and MBEC); format: cell-based, S. aureus
Experimental: (§1) The commercially-available MBEC™ system (Innovotech; Edmonton, AB, Canada) was used following the manufacturer's protocol (17) to establish in vitro biofilms of S. aureus and to determine the minimal biofilm eradication concentration (MBEC) of oritavancin and comparator antimicrobial agents. The MBEC represents the concentration of antimicrobial agent required to sterilize the biofilm after 24 hours of exposure. The MBEC™ system also allows for the determination of the minimal inhibitory concentration (MIC) of the test agent against planktonic cells under the conditions of the biofilm assay.
(§2) 150 μL of bacterial inocula at 10^7 CFU/mL in tryptic soy broth was aliquoted into each well of an MBEC plate. Biofilms were established for 24 hours in a rotary incubator at 37° C. and 150 rpm. For experiments involving 72-hour biofilms, peg lids were transferred each day to 96-well plates containing 150 μL/well of fresh tryptic soy broth and incubated another 24 hours. Peg lids with established biofilms were washed once in sterile saline (200 μL/well) and then placed in plates containing antimicrobial agents diluted in CAMHB (200 μL/well). Antimicrobial agents were serially diluted in CAMHB in 96-well plates and peg lids were exposed for 24 hours or for the indicated times. Following antimicrobial challenge, peg lids were washed once in sterile saline then placed in recovery plates containing CAMHB (200 μL/well). The recovery plates were sonicated for 5 minutes in an ultrasonic sonicating bath (VWR Aquasonic model 550D) at the maximum setting then incubated for 24 hours and the MBECs recorded. MBECs were determined from at least three independent experiments; results represent the ranges of MBECs obtained. To enumerate the biofilm colony forming units (CFUs) on individual control pegs, pegs were broken off the lid using sterile forceps placed in 1 ml sterile saline, sonicated for 5 min and vortexed for 1 min at the highest setting. Bacteria were then enumerated by serial-dilution plating.
(§3) To prevent loss of oritavancin due to binding to vessel surfaces (3), the CLSI now recommends inclusion of 0.002% polysorbate-80 for oritavancin broth microdilution MIC determinations (9).

VRSA VRS5 = assay: MBEC system in vitro biofilm (MIC and MBEC); format: cell-based, S. aureus
Experimental: as §1, §2, §3

MSSA ATCC 29213 = assay: MBEC system in vitro biofilm (MIC and MBEC); format: cell-based, S. aureus; details: for MIC: Staphylococcus aureus
Experimental: as §1, §2, §3

[1] = humans, cited from earlier work
[2] = test system: stationary-phase MRSA ATCC 43300; assay: Ultrastructure by transmission electron microscopy of thin sections; format: cell-based, S. aureus; details: 3 hours in nutrient-depleted CAMHB; 1 μg/mL oritavancin, 16 μg/mL vancomycin
Experimental: Bacteria were fixed in 2.5% glutaraldehyde to cross-link proteins and help preserve morphological structure. Prior to embedding, the samples were treated with fresh 2.5% (vol/vol) glutaraldehyde in HEPES buffer (pH, 6.8) for 2 hours. The samples were then post-fixed in 2.0% (wt/vol) osmium tetroxide, followed by en bloc-staining with 2.0% (wt/vol) uranyl acetate, as a heavy-metal stain, to add contrast to the cells. The cells were then dehydrated through a series of ethanol washes then embedded in LR White resin. Once polymerized by curing, each culture sample was thin sectioned and stained by uranyl acetate and lead citrate so as to view the internal cellular constituents and the juxtaposition of cell envelope layers such as the plasma membrane and cell wall. Transmission electron microscopy was used to view the thin sections using a Philips CM10 under standard operating conditions at 100 kV.

[3] = test system: S. epidermidis ATCC 35984; assay: MBEC plate biofilm eradication, agents in combination; format: cell-based
Text: The following strains were used for in vitro biofilm studies: vancomycin (VAN)-susceptible Enterococcus faecalis ATCC 29212 (VSE), VAN-resistant E. faecalis ATCC 51299 (VanB VRE), E. faecium ATCC 51559 (VanA VRE), S. epidermidis ATCC 12228 and the slime-producing strain S. epidermidis ATCC 35984. Biofilms were established in MBEC™ Physiology & Genetics Assay plates (Innovotech; Edmonton, Canada).

S. aureus ATCC 29213 = assay: Membrane permeability, SYTO-9/propidium iodide fluorescence; format: cell-based; details: stationary-phase cells, 30 min
Experimental: For membrane permeability assays, bacteria were prepared identically as described above for the membrane depolarization assay with the exception that SYTO-9 and propidium iodide (Invitrogen Corporation) were added at 5 μM and 30 μM, respectively. Experiments were repeated three times and produced similar results; results from one assay are presented.

[4] = test system: S. aureus strains (MSSA ATCC 29213, MRSA ATCC 33591, VRSA VRS5); assay: MBEC system in vitro biofilm, statements over all three strains; format: cell-based; details: 24-hour biofilm
Experimental: as §1
150 μL of bacterial inocula at 10^7 CFU/mL in tryptic soy broth was aliquoted into each well of an MBEC plate. Biofilms were established for 24 hours in a rotary incubator at 37° C. and 150 rpm. For experiments involving 72-hour biofilms, peg lids were transferred each day to 96-well plates containing 150 μL/well of fresh tryptic soy broth and incubated another 24 hours. […] The recovery plates were sonicated for 5 minutes in an ultrasonic sonicating bath (VWR Aquasonic model 550D) at the maximum setting then incubated for 24 hours and the MBECs recorded. MBECs were determined from at least three independent experiments; results represent the ranges of MBECs obtained. […]

[5] = 24-hour biofilm, 24 hours of exposure, oritavancin without polysorbate-80
[6] = standard dose (oritavancin 200 mg)

Compound `CN[C@H](CC(C)C)C(=O)N[C@H]1C(=O)N[C@@H](CC(N)=O)C(=O)N[C@H]2C(=O)N[C@H]3C(=O)N[C@H](C(=O)N[C@H](C(=O)O)c4cc(O)cc(O)c4-c4cc3ccc4O)[C@H](O[C@H]3C[C@](C)(N)[C@@H](O)[C@H](C)O3)c3ccc(c(Cl)c3)Oc3cc2cc(c3O[C@@H]2O[C@H](CO)[C@@H](O)[C@H](O)[C@H]2O[C@H]2C[C@](C)(NCc3ccc(-c4ccc(Cl)cc4)cc3)[C@@H](O)[C@H](C)O2)Oc2ccc(cc2Cl)[C@H]1O` [Oritavancin, N-(4-(4-chlorophenyl)benzyl)A82846B] has an MBEC (MRSA ATCC 33591; [5]) of 0.5 to 4 µg/mL, an MIC (MRSA ATCC 33591; Staphylococcus aureus, 24 h) of 0.5 to 4 µg/mL (≈ 0.279 to 2.23 µM) and an MBEC (VRSA VRS5; [5]) of 2 to 8 µg/mL. For the same compound, the MIC (VRSA VRS5; Staphylococcus aureus, VRSA, 24 h) was 2 to 8 µg/mL (≈ 1.12 to 4.46 µM), the MBEC (MSSA ATCC 29213; 24-hour biofilm, 1 hour exposure) was 4 µg/mL and the MBEC (MSSA ATCC 29213; [5]) was 2 to 4 µg/mL. For the same compound, the MBEC (MSSA ATCC 29213; 72-hour biofilms) was 8 to 32 µg/mL, the “MBEC relative to respective planktonic MIC” value (MSSA ATCC 29213; 72-hour biofilms, within each experiment) was “no more than one doubling dilution higher” and the “planktonic MIC relative to CLSI quality control range” value (MSSA ATCC 29213; MBEC assay) was “within quality control range”. The MIC (MSSA ATCC 29213; 24 h) was 2 µg/mL (≈ 1.12 µM), the MIC (MSSA ATCC 29213; 72 h, read-out: planktonic MIC) was 4 to 32 µg/mL (≈ 2.23 to 17.8 µM) and the “predicted fCmax 800 in plasma” value ([1]; single 800 mg dose) was 16 µg/mL. The “estimated fCmax in plasma” value [1, 6] was 4 µg/mL, the “estimated free trough concentration in plasma” value [1, 6] was 0.5 µg/mL and the septal mid-line staining [2] was “conspicuously absent”. The MBEC in combination ([3]; combination of ORI and MOX required for sterilization) was 4 mg/L, the MBEC in combination ([3]; combination of ORI and RFB required for sterilization) was 4 mg/L and the “membrane permeability (SYTO-9 fluorescence)” value (S. aureus ATCC 29213) was “increased membrane permeability”. For the same compound, the MBEC ([4]; all three S. aureus strains) was 2 to 8 µg/mL and the “MBEC relative to respective planktonic MIC” value ([4]; in each experiment) was “within one doubling dilution”.
